{
  "source": "PubChem BioAssay (NCI)",
  "assay_in_all_cases": "NCI tumour cell line growth inhibition, 48 h",
  "key": {"DMS 114 small cell lung": {"test_system": "DMS 114 small cell lung"}, "DMS 273 small cell lung": {"test_system": "DMS 273 small cell lung"}, "HOP-18 NSCLC": {"test_system": "HOP-18 NSCLC"}, "KM20L2 colon": {"test_system": "KM20L2 colon"}, "LXFL 529 NSCLC": {"test_system": "LXFL 529 NSCLC"}, "M19-MEL melanoma": {"test_system": "M19-MEL melanoma"}, "XF 498 CNS": {"test_system": "XF 498 CNS"}, "RXF-631 renal": {"test_system": "RXF-631 renal"}, "MDA-N": {"test_system": "MDA-N"}},
  "note": "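In this assay, cells in 96-well plates receive the compound at five concentrations for 48 hours. Endpoints are linearly interpolated between the surrounding concentrations. GI50 marks 50% less growth. TGI: concentration producing complete growth inhibition.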",
  "data": [
    {"smiles": "CCOC(=O)c1nc(-c2ccccc2)oc1OCC", "values": [
      {"measurement": "TGI", "setting": "DMS 114 small cell lung", "value": "> 100", "unit": "µM"},
      {"measurement": "TGI", "setting": "DMS 273 small cell lung", "value": "> 100", "unit": "µM"},
      {"measurement": "TGI", "setting": "HOP-18 NSCLC", "value": "> 100", "unit": "µM"},
      {"measurement": "TGI", "setting": "KM20L2 colon", "value": "> 100", "unit": "µM"},
      {"measurement": "TGI", "setting": "LXFL 529 NSCLC", "value": "> 100", "unit": "µM"},
      {"measurement": "TGI", "setting": "M19-MEL melanoma", "value": "> 100", "unit": "µM"},
      {"measurement": "TGI", "setting": "XF 498 CNS", "value": "> 100", "unit": "µM"}
    ]},
    {"smiles": "O=C1c2ccccc2CC1C1(O)C(=O)Nc2ccccc21", "note": "(stereo not drawn)", "values": [
      {"measurement": "TGI", "setting": "DMS 114 small cell lung", "value": "> 100", "unit": "µM"},
      {"measurement": "TGI", "setting": "DMS 273 small cell lung", "value": "> 100", "unit": "µM"},
      {"measurement": "TGI", "setting": "KM20L2 colon", "value": "> 100", "unit": "µM"},
      {"measurement": "TGI", "setting": "LXFL 529 NSCLC", "value": "> 100", "unit": "µM"},
      {"measurement": "TGI", "setting": "M19-MEL melanoma", "value": "> 100", "unit": "µM"},
      {"measurement": "TGI", "setting": "RXF-631 renal", "value": "> 100", "unit": "µM"},
      {"measurement": "TGI", "setting": "XF 498 CNS", "value": "> 100", "unit": "µM"}
    ]},
    {"smiles": "N.N.NCCCCCCN.O=C([O-])CC(=O)[O-].O=C([O-])CC(=O)[O-].[Pt+4].[Pt+4]", "values": [
      {"measurement": "GI50", "setting": "DMS 273 small cell lung", "value": 40.8, "unit": "µM"},
      {"measurement": "TGI", "setting": "DMS 273 small cell lung", "value": "> 100", "unit": "µM"},
      {"measurement": "GI50", "setting": "HOP-18 NSCLC", "value": "> 100", "unit": "µM"},
      {"measurement": "TGI", "setting": "HOP-18 NSCLC", "value": "> 100", "unit": "µM"},
      {"measurement": "GI50", "setting": "KM20L2 colon", "value": "> 100", "unit": "µM"},
      {"measurement": "TGI", "setting": "KM20L2 colon", "value": "> 100", "unit": "µM"},
      {"measurement": "GI50", "setting": "LXFL 529 NSCLC", "value": "> 100", "unit": "µM"},
      {"measurement": "TGI", "setting": "LXFL 529 NSCLC", "value": "> 100", "unit": "µM"}
    ]},
    {"smiles": "CCC1CCc2c(OC)ccc(OCC(=O)O)c2C1=O", "note": "(stereo not drawn)", "values": [
      {"measurement": "TGI", "setting": "DMS 114 small cell lung", "value": "> 100", "unit": "µM"},
      {"measurement": "TGI", "setting": "DMS 273 small cell lung", "value": "> 100", "unit": "µM"},
      {"measurement": "TGI", "setting": "LXFL 529 NSCLC", "value": "> 100", "unit": "µM"},
      {"measurement": "TGI", "setting": "M19-MEL melanoma", "value": "> 100", "unit": "µM"},
      {"measurement": "TGI", "setting": "XF 498 CNS", "value": "> 100", "unit": "µM"}
    ]},
    {"smiles": "C=CCNC(=O)NCCCC(NC(C)=O)C(=O)NCc1ccccc1", "note": "(stereo not drawn)", "values": [
      {"measurement": "TGI", "setting": "DMS 273 small cell lung", "value": "> 100", "unit": "µM"},
      {"measurement": "TGI", "setting": "HOP-18 NSCLC", "value": "> 100", "unit": "µM"},
      {"measurement": "TGI", "setting": "KM20L2 colon", "value": "> 100", "unit": "µM"},
      {"measurement": "TGI", "setting": "LXFL 529 NSCLC", "value": "> 100", "unit": "µM"},
      {"measurement": "TGI", "setting": "M19-MEL melanoma", "value": "> 100", "unit": "µM"},
      {"measurement": "TGI", "setting": "RXF-631 renal", "value": "> 100", "unit": "µM"},
      {"measurement": "TGI", "setting": "XF 498 CNS", "value": "> 100", "unit": "µM"}
    ]},
    {"smiles": "CC1CCC(C(C)C)C(O[C@@H]2OC(=O)C[C@@H]2Sc2ccccc2)C1", "note": "(stereo partly drawn)", "values": [
      {"measurement": "TGI", "setting": "DMS 114 small cell lung", "value": 46.9, "unit": "µM"},
      {"measurement": "TGI", "setting": "DMS 273 small cell lung", "value": 36.7, "unit": "µM"},
      {"measurement": "TGI", "setting": "LXFL 529 NSCLC", "value": 46.1, "unit": "µM"},
      {"measurement": "TGI", "setting": "M19-MEL melanoma", "value": 62.1, "unit": "µM"},
      {"measurement": "TGI", "setting": "RXF-631 renal", "value": 69.8, "unit": "µM"}
    ]},
    {"smiles": "c1ccc(CSc2nnc3c4ccccc4c4ccccc4c3n2)cc1", "values": [
      {"measurement": "TGI", "setting": "MDA-N", "value": "> 100", "unit": "µM"}
    ]},
    {"smiles": "COC(=O)C(F)C(Br)C(=O)OC", "note": "(stereo not drawn)", "values": [
      {"measurement": "TGI", "setting": "MDA-N", "value": 22.7, "unit": "µM"}
    ]},
    {"smiles": "C=C1CCC2[C@@H](CCC3[C@]2(C)CCC[C@]3(C)C(=O)OC)C1CCO", "note": "(stereo partly drawn)", "values": [
      {"measurement": "TGI", "setting": "DMS 114 small cell lung", "value": 20.3, "unit": "µM"},
      {"measurement": "TGI", "setting": "DMS 273 small cell lung", "value": 24.9, "unit": "µM"},
      {"measurement": "TGI", "setting": "HOP-18 NSCLC", "value": 29.9, "unit": "µM"},
      {"measurement": "TGI", "setting": "KM20L2 colon", "value": 22.8, "unit": "µM"},
      {"measurement": "TGI", "setting": "LXFL 529 NSCLC", "value": 21, "unit": "µM"},
      {"measurement": "TGI", "setting": "M19-MEL melanoma", "value": 29.9, "unit": "µM"},
      {"measurement": "TGI", "setting": "XF 498 CNS", "value": 22.6, "unit": "µM"}
    ]}
  ]
}
